These results are taken from US8846746B2, “Pyrazole compound and pharmaceutical use thereof” (Japan Tobacco Inc., priority 2011, dated 2014).

Sequence of human SGLT1 (P13866 whole entry): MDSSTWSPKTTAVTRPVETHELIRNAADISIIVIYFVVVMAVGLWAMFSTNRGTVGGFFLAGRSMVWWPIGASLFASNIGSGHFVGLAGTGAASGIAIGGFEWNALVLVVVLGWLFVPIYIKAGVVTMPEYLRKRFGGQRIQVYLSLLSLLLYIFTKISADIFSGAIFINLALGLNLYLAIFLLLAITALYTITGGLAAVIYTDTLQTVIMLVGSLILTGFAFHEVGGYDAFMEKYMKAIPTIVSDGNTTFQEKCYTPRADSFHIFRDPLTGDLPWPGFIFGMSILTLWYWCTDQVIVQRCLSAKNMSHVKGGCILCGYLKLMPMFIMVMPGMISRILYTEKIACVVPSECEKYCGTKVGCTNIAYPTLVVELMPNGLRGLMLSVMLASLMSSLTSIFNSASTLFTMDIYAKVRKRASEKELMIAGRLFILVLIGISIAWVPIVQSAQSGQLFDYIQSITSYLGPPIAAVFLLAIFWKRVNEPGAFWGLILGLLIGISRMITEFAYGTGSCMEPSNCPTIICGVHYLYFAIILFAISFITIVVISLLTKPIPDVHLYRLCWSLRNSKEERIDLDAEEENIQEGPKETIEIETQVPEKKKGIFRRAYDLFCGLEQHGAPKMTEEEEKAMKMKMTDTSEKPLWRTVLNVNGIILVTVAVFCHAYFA

The first assay concerns the target human SGLT1 (Homo sapiens (Human), UniProt P13866). Put plainly: SGLT1 inhibitory activity: 14C-AMG uptake into CHO-K1 cell line stably expressing human SGLT1. Format: cell-based. Conditions: 14C-AMG uptake, CHO-K1 cells expressing human SGLT1. The essentials:
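Human SGLT1 was stably expressed in CHO-K1 cells. Cells were first held 20 min in sodium-free buffer, then exposed to compound in Na(+)/BSA buffer with tracer and AMG (2 mM in the added solution).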
Consider `CCCc1cccc(-c2cc(NC(=O)[C@H]3CNC(=O)C3)nn2-c2ccccc2C)c1` [Example 102], for which it took 2.2 nM to reach half-maximal inhibition (IC50). On the same count and under the same terms, with `CCCc1cccc(-c2cc(NC(=O)[C@H]3CNC(=O)C3)nn2-c2cccc(F)c2)c1` [Example 103] the figure was 5 nM; with `CCCc1cccc(-c2cc(NC(=O)[C@@H]3CNC(=O)C3)nn2-c2cccc(F)c2)c1` [Example 104], 9.8 nM; with `O=C1C[C@@H](C(=O)Nc2cc(-c3cccc(OC(F)(F)F)c3)n(-c3ccc(Cl)cc3)n2)CN1` [Example 105], 37 nM. Turning to `O=C1C[C@@H](C(=O)Nc2cc(-c3cccc(OC(F)(F)F)c3)n(-c3cccc(Cl)c3)n2)CN1` [Example 106], the IC50 (commonly the concentration needed to halve the response being measured) was 6.8 nM. `CCCc1cccc(-c2cc(NC(=O)[C@H]3CNC(=O)C3)nn2CCc2ccccc2)c1` [Example 107] registered an IC50 of 44 nM.

Molecule `CC(C)(C)c1cccc(-c2cc(NC(=O)[C@H]3CNC(=O)C3)nn2CCc2ccccc2)c1` [Example 109] came in with an IC50 of 65 nM. The IC50 values of the last two molecules are within 1.5-fold of each other.

Turning to `O=C1C[C@@H](C(=O)Nc2cc(-c3cccc(OC(F)(F)F)c3)n(CCc3ccccc3)n2)CN1` [Example 110], the IC50 was 85 nM. On the same count and under the same terms, with `CCCc1cccc(-c2cc(NC(=O)[C@H]3CNC(=O)C3)nn2CC2CCCCC2)c1` [Example 111] the figure was 46 nM; with `CCCc1cccc(-c2cc(NC(=O)[C@@H]3CNC(=O)C3)nn2CC2CCCCC2)c1` [Example 112], 83 nM. The molecule `CCCc1cccc(-c2cc(NC(=O)[C@H]3CNC(=O)C3)nn2CCC2CCCCC2)c1` [Example 113] showed an IC50 of 12 nM. Against the preceding molecule, the IC50 is about 6.9-fold lower.

For the molecule `CCCc1cccc(-c2cc(NC(=O)[C@@H]3CNC(=O)C3)nn2CCC2CCCCC2)c1` [Example 114], the IC50 was 27 nM. This IC50 lies about 2.2-fold higher than the previous one. `O=C1C[C@@H](C(=O)Nc2cc(-c3cccc(O)c3)n(-c3ccccc3)n2)CN1` [Example 118] showed an IC50 of 9300 nM. Molecule `O=C1C[C@@H](C(=O)Nc2cc(-c3cccc(CO)c3)n(-c3ccccc3)n2)CN1` [Example 119] showed an IC50 of 570 nM. This IC50 is about 16-fold lower than that of the molecule before. Molecule `CCCc1cccc(-c2cc(NC(=O)[C@H]3CNC(=O)C3)nn2-c2ccc(OC)cc2)c1` [Example 121] yielded an IC50 of 11 nM.

For the molecule `CCCc1cccc(-c2cc(NC(=O)[C@H]3CNC(=O)C3)nn2-c2cccc(OC)c2)c1` [Example 123], the IC50 was found to be 5 nM.

Molecule `CCCc1cccc(-c2cc(NC(=O)[C@H]3CNC(=O)C3)nn2-c2cccc(OCC(=O)O)c2)c1` [Example 124] had an IC50 of 170 nM. This IC50 lies about 34-fold higher than the previous one.

`CCCc1cccc(-c2cc(NC(=O)[C@@H]3CNC(=O)N3C)nn2-c2ccccc2)c1` [Example 125] came in with an IC50 of 17 nM. Regarding `CC(C)(C)c1cccc(-c2cc(NC(=O)[C@H]3CNC(=O)C3)nn2-c2cccc(Cl)c2)c1` [Example 126], the IC50 came out at 1.2 nM.

For `Cc1cccc(-n2nc(NC(=O)[C@H]3CNC(=O)C3)cc2-c2cccc(C(C)(C)C)c2)c1` [Example 127], the IC50 was found to be 1.4 nM. For the molecule `O=C1C[C@@H](C(=O)Nc2cc(-c3cccc(OC(F)(F)F)c3)n(CCC3CCCCC3)n2)CN1` [Example 128], it took 17 nM to reach half-maximal inhibition (IC50).

For the molecule `CC(C)(C)c1cccc(-c2cc(NC(=O)[C@H]3CNC(=O)C3)nn2CCC2CCCCC2)c1` [Example 129], the IC50 came to 28 nM.

For `O=C1C[C@@H](C(=O)Nc2cc(-c3cccc(OC(F)(F)F)c3)n(-c3ccccc3Cl)n2)CN1` [Example 130], the IC50 was determined as 1.3 nM. Take `O=C1C[C@@H](C(=O)Nc2cc(-c3cccc(OC(F)(F)F)c3)n(-c3ccccc3F)n2)CN1` [Example 131]: the midpoint of inhibition, the IC50, lay at 6.3 nM. Compared with the last molecule, the IC50 is about 4.8-fold higher. `CC(C)(C)c1cccc(-c2cc(NC(=O)[C@H]3CNC(=O)C3)nn2-c2ccccc2Cl)c1` [Example 132] came in with an IC50 of 0.9 nM. Molecule `CCCc1cccc(-c2cc(NC(=O)[C@H]3CNC(=O)C3)nn2-c2ccccc2OC)c1` [Example 133] had a half-maximal inhibitory concentration (IC50) of 11 nM. Take `CCCc1cccc(-c2cc(NC(=O)[C@H]3CNC(=O)C3)nn2CCC(C)(C)C)c1` [Example 134]: the IC50 is 6.8 nM. Take `CCCc1cccc(-c2cc(NC(=O)[C@H]3CNC(=O)C3)nn2CCC(C)C)c1` [Example 135]: the IC50 is 11 nM. This IC50 lies about 1.6-fold higher than the previous one. Consider `CCCc1cccc(-c2cc(NC(=O)[C@H]3CNC(=O)C3)nn2C2CCOCC2)c1` [Example 136], for which the IC50 was 28 nM. In turn, `CCCc1cccc(-c2cc(NC(=O)[C@H]3CNC(=O)C3)nn2CCC2CCCC2)c1` [Example 137] registered an IC50 of 14 nM. On to `CC(C)C(F)(F)c1cccc(-c2cc(NC(=O)[C@H]3CNC(=O)C3)nn2-c2ccccc2)c1` [Example 138], for which the IC50 was determined as 1.5 nM. Same read-out and setting: in the case of `CCC(F)(F)c1cccc(-c2cc(NC(=O)[C@H]3CNC(=O)C3)nn2-c2cccc(Cl)c2)c1` [Example 139] it was 1.7 nM; in that of `CCC(F)(F)c1cccc(-c2cc(NC(=O)[C@H]3CNC(=O)C3)nn2-c2ccccc2Cl)c1` [Example 140], 1.1 nM. In the case of `CCC(F)(F)c1cccc(-c2cc(NC(=O)[C@H]3CNC(=O)C3)nn2-c2ccc(Cl)cc2)c1` [Example 141], the concentration for half-maximal inhibition (IC50) was 5.5 nM. This IC50 lies about 5-fold higher than the previous one. For the molecule `CCC(F)(F)c1cccc(-c2cc(NC(=O)[C@H]3CNC(=O)C3)nn2CCC(C)C)c1` [Example 142], the IC50 came to 9.2 nM.

The molecule `CCC(F)(F)c1cccc(-c2cc(NC(=O)[C@H]3CNC(=O)C3)nn2CCC(C)(C)C)c1` [Example 143] came in with an IC50 of 6.5 nM.

Molecule `CCC(F)(F)c1cccc(-c2cc(NC(=O)[C@H]3CNC(=O)C3)nn2-c2ccccc2C)c1` [Example 144] had an IC50 of 1.3 nM. The molecule `O=C1C[C@@H](C(=O)Nc2cc(-c3cccc(OC(F)(F)F)c3)n(-c3ccc(F)cc3)n2)CN1` [Example 147] showed an IC50 of 15 nM.

As to `O=C1C[C@@H](C(=O)Nc2cc(-c3cccc(OCC(F)(F)F)c3)n(-c3ccccc3)n2)CN1` [Example 148], the IC50 was 10 nM.

`O=C1C[C@@H](C(=O)Nc2cc(-c3cccc(OCCC(F)(F)F)c3)n(-c3ccccc3)n2)CN1` [Example 149]: the midpoint of inhibition, the IC50, lay at 9.5 nM. `C[C@H]1C(=O)NC[C@@H]1C(=O)Nc1cc(-c2cccc(OC(F)(F)F)c2)n(-c2ccc(Cl)cc2)n1` [Example 152] yielded an IC50 of 9.3 nM. Still for that read-out and setting: with `CC(C)(C)c1cccc(-c2cc(NC(=O)[C@H]3CNC(=O)C3)nn2-c2ccc(Cl)cc2)c1` [Example 153] the figure was 3.3 nM. Still for that read-out and setting: in the case of `CCC(F)(F)c1cccc(-c2cc(NC(=O)[C@H]3CNC(=O)[C@@H]3C)nn2-c2ccccc2)c1` [Example 154] it was 1.1 nM. On the same count and under the same terms, in the case of `CCC(F)(F)c1cccc(-c2cc(NC(=O)[C@H]3CNC(=O)C3)nn2C2CCOCC2)c1` [Example 155] it was 19 nM; in that of `Cc1ccccc1-n1nc(NC(=O)[C@H]2CNC(=O)C2)cc1-c1cccc(OC(F)(F)F)c1` [Example 156], 2.7 nM.

The molecule `O=C1C[C@@H](C(=O)Nc2cc(-c3cccc(OC(F)(F)F)c3)n(-c3cccc(F)c3)n2)CN1` [Example 157] gave an IC50 of 13 nM. Same read-out and setting: in the case of `CC(C)C(F)(F)c1cccc(-c2cc(NC(=O)[C@H]3CNC(=O)C3)nn2-c2ccc(Cl)cc2)c1` [Example 158] it was 3.4 nM; in that of `O=C1C[C@@H](C(=O)Nc2cc(-c3cccc(OCC(F)(F)F)c3)n(-c3ccc(Cl)cc3)n2)CN1` [Example 159], 17 nM. On to `O=C1C[C@@H](C(=O)Nc2cc(-c3cccc(OCCC(F)(F)F)c3)n(-c3ccc(Cl)cc3)n2)CN1` [Example 160], for which the IC50 worked out at 11 nM. `CC(F)(F)c1cccc(-c2cc(NC(=O)[C@H]3CNC(=O)C3)nn2-c2ccccc2)c1` [Example 161]: 22 nM corresponded to half-maximal inhibition (IC50). `CC(F)(F)c1cccc(-c2cc(NC(=O)[C@H]3CNC(=O)C3)nn2-c2ccc(Cl)cc2)c1` [Example 162]: the half-maximal inhibitory concentration (IC50) was 19 nM. The IC50 values of the last two molecules are within 1.5-fold of each other. Same read-out and setting: in the case of `COc1cccc(-n2nc(NC(=O)[C@H]3CNC(=O)C3)cc2-c2cccc(OC(F)(F)F)c2)c1` [Example 163] it was 7.1 nM; in that of `CCC(F)(F)c1cccc(-c2cc(NC(=O)[C@H]3CNC(=O)C3)nn2-c2cccc(OC)c2)c1` [Example 164], 2.6 nM.

The molecule `C[C@H]1C(=O)NC[C@@H]1C(=O)Nc1cc(-c2cccc(OC(F)(F)F)c2)n(-c2ccccc2F)n1` [Example 166] came in with an IC50 of 2.9 nM. This IC50 and that of the molecule before are within 1.5-fold of each other. Same read-out and setting: with `CCC(F)(F)c1cccc(-c2cc(NC(=O)[C@H]3CNC(=O)[C@@H]3C)nn2-c2cccc(F)c2)c1` [Example 170] the figure was 3 nM; with `CCC(F)(F)c1cccc(-c2cc(NC(=O)[C@H]3CNC(=O)[C@@H]3C)nn2-c2ccc(F)cc2)c1` [Example 172], 5.5 nM. The same measure, in the same setting: in the case of `CCC(F)(F)c1cccc(-c2cc(NC(=O)[C@H]3CNC(=O)C3)nn2-c2ccc(F)cc2)c1` [Example 173] it was 13 nM; in that of `CCC(F)(F)c1cccc(-c2cc(NC(=O)[C@H]3CNC(=O)[C@@H]3C)nn2CCOC(C)C)c1` [Example 176], 55 nM; in that of `CC(C)(C)c1cccc(-c2cc(NC(=O)[C@H]3CNC(=O)C3)nn2C2CCOCC2)c1` [Example 177], 56 nM.

Staying with this assay, now noted: CHO-K1, at 0.1 uM.
For the molecule `CCCc1cccc(-c2cc(NC(=O)[C@@H]3CNC(=O)C3)nn2CCc2ccccc2)c1` [Example 108], the inhibition (commonly the percentage by which the read-out fell short of the control) at 0.1 µM was 45%. On the same count and under the same terms, with `CCCc1cc(CO)cc(-c2cc(NC(=O)[C@H]3CNC(=O)C3)nn2-c2ccccc2)c1` [Example 146] the figure was 38%. Same read-out and setting: in the case of `CCC(F)(F)c1cccc(-c2cc(NC(=O)[C@H]3CNC(=O)C3)nn2CCN2CCCC2)c1` [Example 169] it was 4%. The same measure, in the same setting: with `CCC(F)(F)c1cccc(-c2cc(NC(=O)[C@H]3CNC(=O)C3)nn2CCOC(C)C)c1` [Example 175] the figure was 40%.

The assay is the same for the next values; noted with them: CHO-K1, at 1 uM.
As for `CCCc1cc(-c2cc(NC(=O)[C@H]3CNC(=O)C3)nn2-c2ccccc2)ccc1OCC(=O)O` [Example 122], the inhibition at 1 µM was 9%. The same measure, in the same setting: in the case of `CCCc1cc(C(=O)O)cc(-c2cc(NC(=O)[C@H]3CNC(=O)C3)nn2-c2ccccc2)c1` [Example 145] it was 43%; in that of `O=C1C[C@@H](C(=O)Nc2cc(-c3cccc(OC(F)(F)F)c3)n(-c3ccc(Cl)c(F)c3)n2)CN1` [Example 174], 9%.
